In paper PMC11973506, “In vitro α–Glucosidase Inhibition, Cytotoxicity, SAR, Swiss ADME Prediction and Molecular Docking Study of New N–Substituted Hydantoin Derivatives” (ChemistryOpen, 2025):
Where two headings read alike, the source gives them in different places.

Columns and labels:
[1] = target: T1, Saccharomyces cerevisiae α-glucosidase (Saccharomyces cerevisiae, UniProt P53341); assay: In vitro α-glucosidase inhibition assay (p-nitrophenyl glucopyranoside substrate); format: biochemical
T1 construct: purchased
T1 sequence (P53341 whole entry): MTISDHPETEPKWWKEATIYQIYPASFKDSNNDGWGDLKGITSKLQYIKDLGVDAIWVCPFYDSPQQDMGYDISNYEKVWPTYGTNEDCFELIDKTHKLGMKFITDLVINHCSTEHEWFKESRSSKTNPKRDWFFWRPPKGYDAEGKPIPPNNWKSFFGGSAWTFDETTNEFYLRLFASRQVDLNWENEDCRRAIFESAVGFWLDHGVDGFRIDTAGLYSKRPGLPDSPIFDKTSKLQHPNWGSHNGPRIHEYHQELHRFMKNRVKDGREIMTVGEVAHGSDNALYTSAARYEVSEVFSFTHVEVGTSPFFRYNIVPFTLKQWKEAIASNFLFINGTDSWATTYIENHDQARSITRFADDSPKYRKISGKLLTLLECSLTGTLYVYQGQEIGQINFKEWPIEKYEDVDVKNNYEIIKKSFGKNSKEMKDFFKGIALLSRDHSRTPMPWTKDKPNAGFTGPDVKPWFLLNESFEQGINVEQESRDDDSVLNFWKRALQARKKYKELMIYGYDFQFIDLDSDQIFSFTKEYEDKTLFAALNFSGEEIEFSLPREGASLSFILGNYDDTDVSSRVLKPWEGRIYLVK
Experimental: Using Saccharomyces cerevisiae α‐glucosidase enzymes, hydantoin derivatives 8 a–o were evaluated for them for their in vitro α‐glucosidase activity.
The α‐glucosidase inhibitions of compounds 8 a–o were screened as described in our previous method.[21] Epigallacatechin gallate (EGCG) was used as positive control. The α‐glucosidase enzyme (Saccharomyces Cerevisiae, 50 μg/mL) and substrate (p‐nitrophenyl glucopyranoside) were dissolved in a solution of potassium phosphate buffer (pH 6.3, 3 mM). Final compounds 8 a–o were dissolved in DMSO to give a final concentration of 200 μM. […] All samples (5 μL), enzyme (20 μL), and potassium phosphate buffer (60 μL) were added to the 96‐well plate and incubated at 37 °C for 5 min. Thereafter, the substrate (10 μL, 4 mM) was added to the mixture and incubated at 37 °C for 20 min followed by the addition of sodium carbonate (25 μL). Finally, the absorbance readings were measured by BioTek® PowerWave XS spectrophotometer (Winooski, VT, USA). Since the enzyme and substrate controls […], the percentage of α‐glucosidase inhibition was calculated using follows: (1) %α-glucosidaseinhibition=(A405nmofcontrol-A405nmoftestsample)/A405nmofcontrol×100

[2] = tested on: Caco2 cell line; conditions: 48 hours of treatment with 100 μM, below 2000 considered toxic
Experimental: Cytotoxicity screening is one of the important tools used to determine whether a compound is toxic or not. Furthermore, these assays are performed by testing the ability of cells to continue proliferating in the presence of a test compound or substance over a specific period.[23] All hydantoin title compounds 8 a–o were screened for their in vitro cytotoxicity activity using the Caco2 cell line against the untreated (UT) and melphalan as a control. […] Any compound with living cells below […] was considered to be toxic.
The human colorectal adenocarcinoma cell line (CaCO2) used to screen the cytotoxicity of compounds 8 a–o was based on our initially described protocol.[21] […] Samples were sonicated if solubility was a problem and stored at 4 °C until required. Melphalan (100 mM stock) was prepared in DMSO and used as a positive control at a final concentration of 30 μM. The cells (4000 cells/well) were seeded in 96 well plates at 100 μL aliquots and were left for 24 hours to attach. After 24 hours, the 100 μL of the medium was treated with 100 μL aliquots of 200 μM dilution. Cells were maintained in 10 cm culture dishes in 10 mL complete medium (DMEM‐LG+10 % FBS+1× penicillin/streptomycin) and incubated for 48 hours at 37 °C, 5 % CO2, and 100 % relative humidity until needed. After incubation 100 μL staining solution Hoechst (5 μg/mL) and 10 μL PI solution were stained on the plates before they were incubated again for 30 min. Quantification of live and dead cells was performed using the ImageXpress Micro XLS Widefield Microscope (Molecular Devices) using a 10× Plan Fluor objective and DAPI and Texas Red filter cubes. Acquired images were analyzed using the MetaXpress software and Multi‐Wavelength Cell Scoring Application Module. Acquired data was transferred to an Excel spreadsheet and data was analyzed and processed.

[3] = text statement for 50 and 100 μM together

CCC(NC(=O)CN1C(=O)NC(=Cc2ccc(OC)cc2)C1=O)C(=O)OC (stereo not drawn) [8 b]
inhibition at 50 µM ([1]; 50 μM): 0.43 ± 16.8%
inhibition at 200 µM ([1]; 200 μM): 39.3 ± 1.01%

CCOC(=O)C(NC(=O)CN1C(=O)N/C(=C\c2ccc(C)cc2)C1=O)C(C)C (stereo not drawn) [8 j]
inhibition at 10 µM ([1]; 10 μM): 6.49 ± 17.8%
inhibition at 50 µM ([1]; 50 μM): 13.8 ± 9.6%
inhibition at 100 µM ([1]; 100 μM): 19.2 ± 10.2%
inhibition at 200 µM ([1]; 200 μM): 48.5 ± 2.33%
Cytotoxicity, live cells [2]: 2565 ± 198

CCC(NC(=O)CN1C(=O)N/C(=C\c2ccc3c(c2)OCO3)C1=O)C(=O)OC (stereo not drawn) [8 m]
α-glucosidase inhibition ([1]; 10 μM): ‐
inhibition at 50 µM ([1]; 50 μM): 6.94 ± 10.9%
inhibition at 100 µM ([1]; 100 μM): 11.2 ± 11%
inhibition at 200 µM ([1]; 200 μM): 37.6 ± 10%

COC(=O)C(NC(=O)CN1C(=O)N/C(=C\c2ccc(C)cc2)C1=O)C(C)C (stereo not drawn) [8 g]
inhibition at 10 µM ([1]; 10 μM): 1.8 ± 13.8%
inhibition at 50 µM ([1]; 50 μM): 4.13 ± 4.26%
inhibition at 100 µM ([1]; 100 μM): 18 ± 3.95%
inhibition at 200 µM ([1]; 200 μM): 45.2 ± 3.6%

CCOC(=O)C(C)NC(=O)CN1C(=O)N/C(=C\c2ccc(C)cc2)C1=O (stereo not drawn) [8 i]
α-glucosidase inhibition ([1]; 10 μM): ‐
α-glucosidase inhibition ([1]; 50 μM): ‐
α-glucosidase inhibition ([1]; 100 μM): ‐
inhibition at 200 µM ([1]; 200 μM): 44.6 ± 0.99%
α-glucosidase inhibition [1, 3]: no activity
Cytotoxicity, live cells [2]: 2595 ± 289

CCCC(NC(=O)CN1C(=O)N/C(=C\c2ccc(C)cc2)C1=O)C(=O)OCC (stereo not drawn) [8 k]
inhibition at 50 µM ([1]; 50 μM): 14.5 ± 5.42%
inhibition at 100 µM ([1]; 100 μM): 17 ± 8.54%
inhibition at 200 µM ([1]; 200 μM): 41.9 ± 3.31%

CCOC(=O)C(NC(=O)CN1C(=O)N/C(=C\c2ccc3c(c2)OCO3)C1=O)C(C)C (stereo not drawn) [8 n]
inhibition at 10 µM ([1]; 10 μM): 0.73 ± 11.4%
inhibition at 50 µM ([1]; 50 μM): 14 ± 16.4%
inhibition at 100 µM ([1]; 100 μM): 28.3 ± 17.3%
inhibition at 200 µM ([1]; 200 μM): 57.4 ± 2.79%
Cytotoxicity, live cells [2]: 2039 ± 740

CCCC(NC(=O)CN1C(=O)N/C(=C\c2ccc(C)cc2)C1=O)C(=O)OC (stereo not drawn) [8 h]
inhibition at 10 µM ([1]; 10 μM): 3.45 ± 13.6%
inhibition at 50 µM ([1]; 50 μM): 16.3 ± 15.2%
inhibition at 100 µM ([1]; 100 μM): 25.4 ± 7.88%
inhibition at 200 µM ([1]; 200 μM): 42.8 ± 4.3%

CCCC(NC(=O)CN1C(=O)N/C(=C\c2ccc3c(c2)OCO3)C1=O)C(=O)OC (stereo not drawn) [8 o]
inhibition at 10 µM ([1]; 10 μM): 11.3 ± 15.2%
inhibition at 50 µM ([1]; 50 μM): 16 ± 17.9%
inhibition at 100 µM ([1]; 100 μM): 37.4 ± 24.9%
inhibition at 200 µM ([1]; 200 μM): 57.8 ± 6.38%

COC(=O)C(C)NC(=O)CN1C(=O)N/C(=C\c2ccc(OC)cc2)C1=O (stereo not drawn) [8 a]
inhibition at 200 µM ([1]; 200 μM): 51.6 ± 2.92%
α-glucosidase inhibition ([1]; 200 μM): moderate inhibition
α-glucosidase inhibition [1, 3]: no activity
Cytotoxicity, live cells [2]: 2605
Cytotoxicity, live cells ([2]; listed as 8a): 2605 ± 293

O=C(O[C@@H]1Cc2c(O)cc(O)cc2O[C@@H]1c1cc(O)c(O)c(O)c1)c1cc(O)c(O)c(O)c1 [EGCG, Epigallocatechin gallate, reference compound]
inhibition at 10 µM ([1]; 10 μM): 97.03 ± 0.41%
inhibition at 50 µM ([1]; 50 μM): 97.03 ± 0.41%
inhibition at 100 µM ([1]; 100 μM): 97.03 ± 0.41%
inhibition at 200 µM ([1]; 200 μM): 97.03 ± 0.41%

COC(=O)C(C)NC(=O)CN1C(=O)N/C(=C\c2ccc(C)cc2)C1=O (stereo not drawn) [8 e]
α-glucosidase inhibition ([1]; 10 μM): ‐
inhibition at 50 µM ([1]; 50 μM): 9.01 ± 16.4%
inhibition at 100 µM ([1]; 100 μM): 9.75 ± 6.4%
inhibition at 200 µM ([1]; 200 μM): 51.4%
α-glucosidase inhibition ([1]; 200 μM): 31.35 ± 1.95%
Cytotoxicity, live cells [2]: 2567 ± 299

COC(=O)C(NC(=O)CN1C(=O)N/C(=C\c2ccc(OC)cc2)C1=O)C(C)C (stereo not drawn) [8 c]
inhibition at 50 µM ([1]; 50 μM): 3.37 ± 11.5%
inhibition at 100 µM ([1]; 100 μM): 9.51 ± 19.7%
inhibition at 200 µM ([1]; 200 μM): 41 ± 2.62%

COC(=O)C(C)NC(=O)CN1C(=O)N/C(=C\c2ccc3c(c2)OCO3)C1=O (stereo not drawn) [8 l]
α-glucosidase inhibition ([1]; 10 μM): ‐
inhibition at 50 µM ([1]; 50 μM): 7.7 ± 17.8%
inhibition at 100 µM ([1]; 100 μM): 9.6 ± 23%
inhibition at 200 µM ([1]; 200 μM): 57.4 ± 4.05%

CCC(NC(=O)CN1C(=O)N/C(=C\c2ccc(C)cc2)C1=O)C(=O)OC (stereo not drawn) [8 f]
inhibition at 10 µM ([1]; 10 μM): 4.92 ± 18%
inhibition at 50 µM ([1]; 50 μM): 8.87 ± 21.3%
inhibition at 100 µM ([1]; 100 μM): 12.2 ± 10.9%
Cytotoxicity, live cells [2]: 2230 ± 570
